9 compounds from PubChem BioAssay (NCI) can be followed below.

Several values for one entry are separate records, joined by “and”; a condition that tells them apart may be missing. Equal values may be shown once.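 All cell lines were grown in 96-well plates and treated with compound for 48 hours. At the GI50, growth is halved. At the TGI there is no net growth.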 Where a SMILES comes first, the peptide text is derived from it. The star is where a group is joined. Trt = c1ccc(C(c2ccccc2)(c2ccccc2)*)cc1; Cbz = O=C(OCc1ccccc1)*

Some test systems named below: CCRF-CEM leukemia; DU-145 prostate; HOP-62 NSCLC; HT29 colon; IGROV1 ovarian; MALME-3M melanoma; OVCAR-5 ovarian; U251 CNS; UACC-257 melanoma; UACC-62 melanoma.
What all share (test): NCI-60 cell line screen, 48 h

Take `Cn1cc(-c2nc(N[C@@H]3CCCC[C@@H]3N)c(F)c3c2C(=O)NC3)cn1`: the GI50 is 5.09 µM and 5.26 µM with CCRF-CEM leukemia; 11.5 µM and 14.4 µM in the experiment on DU-145 prostate; 3.37 µM and 3.32 µM with HOP-62 NSCLC; 4.33 µM and 5.99 µM in the experiment with HT29 colon; 5 µM and 5.65 µM in the experiment with IGROV1 ovarian; 11 µM and 9.57 µM with MALME-3M melanoma. Moreover, the GI50 in the experiment on OVCAR-5 ovarian is 7.14 µM and 8.43 µM; with U251 CNS, 15.3 µM; with UACC-257 melanoma, 19.4 µM and 23.9 µM; in the experiment with UACC-62 melanoma, 10.4 µM and 13.1 µM. Besides, the TGI with CCRF-CEM leukemia is greater than 100 µM; with DU-145 prostate, greater than 100 µM; with HOP-62 NSCLC, 29.7 µM and 30.5 µM; in the experiment with HT29 colon, 81.5 µM and > 94.4 µM; in the experiment on IGROV1 ovarian, greater than 68.9 µM; in the experiment on MALME-3M melanoma, 35.2 µM and 50.5 µM. Further, the TGI in the experiment with OVCAR-5 ovarian was greater than 100 µM; in the experiment with U251 CNS it was 33.9 µM and 36.3 µM; in the experiment with UACC-257 melanoma, 98.6 µM and > 88.5 µM; in the experiment with UACC-62 melanoma, greater than 100 µM.

As to `COc1ccc2c(c1)/C(=N/OC(C)=O)c1c-2cnc2ccccc12`, the GI50 in the experiment with CCRF-CEM leukemia was 28.5 µM; in the experiment on DU-145 prostate, 36 µM; with HOP-62 NSCLC, 20.8 µM; in the experiment with HT29 colon, 43.1 µM; in the experiment on IGROV1 ovarian, 25.3 µM; in the experiment on MALME-3M melanoma, 16.2 µM. The GI50 in the experiment with OVCAR-5 ovarian is 21.9 µM; in the experiment on U251 CNS, 19.3 µM; with UACC-257 melanoma, 61.1 µM; in the experiment on UACC-62 melanoma, 16.6 µM. Further, the TGI is greater than 100 µM in the experiment on CCRF-CEM leukemia; greater than 100 µM in the experiment with DU-145 prostate; 46.6 µM with HOP-62 NSCLC; greater than 100 µM in the experiment on HT29 colon; 52 µM in the experiment on IGROV1 ovarian; 39.1 µM in the experiment on MALME-3M melanoma. Moreover, the TGI with OVCAR-5 ovarian was 55.6 µM; in the experiment with U251 CNS, 39.4 µM; in the experiment on UACC-257 melanoma, greater than 100 µM; in the experiment on UACC-62 melanoma, 36.3 µM.

On to `CC1=C(N2CC2)C(=O)c2ccccc2C1=O`, for which the TGI in the experiment on CCRF-CEM leukemia came out at 15.5 µM; with DU-145 prostate, 0.276 µM; in the experiment with HOP-62 NSCLC it was 3.21 µM; with HT29 colon, 3.07 µM; in the experiment on IGROV1 ovarian it was 8.58 µM; with MALME-3M melanoma, 2.65 µM. Moreover, the TGI with OVCAR-5 ovarian came out at 1.69 µM; in the experiment on U251 CNS it was 10.3 µM; in the experiment on UACC-257 melanoma, 1.94 µM; with UACC-62 melanoma, 2.05 µM.

As for `COC(=O)C(CSC(c1ccccc1)(c1ccccc1)c1ccccc1)NC(=O)C(CC(N)=O)NC(=O)OCc1ccccc1` (stereo not drawn) (Cbz-Asn-Cys(Trt)-OMe; configuration not given here), the GI50 was 3.33 µM in the experiment on CCRF-CEM leukemia; 2.68 µM in the experiment on DU-145 prostate; 3.77 µM in the experiment on HOP-62 NSCLC; 5.03 µM in the experiment with HT29 colon; 6.1 µM with IGROV1 ovarian; 2.21 µM in the experiment with MALME-3M melanoma. For the same compound, the GI50 is 7.23 µM with OVCAR-5 ovarian, 5.87 µM with U251 CNS, 8.92 µM in the experiment with UACC-257 melanoma and 3.15 µM in the experiment with UACC-62 melanoma. Also, the TGI with CCRF-CEM leukemia stood at 19.7 µM; with DU-145 prostate it was 8.61 µM; with HOP-62 NSCLC, 14.7 µM; with HT29 colon, 17.2 µM; in the experiment on IGROV1 ovarian, 25.7 µM; with MALME-3M melanoma, 12.1 µM. Moreover, the TGI with OVCAR-5 ovarian came out at 20.2 µM; in the experiment on U251 CNS, 18.5 µM; in the experiment with UACC-257 melanoma it was 21.7 µM; with UACC-62 melanoma it was 14.1 µM.

For the compound `Cc1cc2nc3c4ccc(Br)cc4n(CCN(C)C)c3nc2cc1C`, the GI50 was 1.5 µM with CCRF-CEM leukemia; 2.96 µM in the experiment with DU-145 prostate; 1.71 µM in the experiment with HOP-62 NSCLC; 0.664 µM in the experiment with HT29 colon; 1.12 µM with IGROV1 ovarian; 1.44 µM in the experiment with MALME-3M melanoma. For the same compound, the GI50 in the experiment on OVCAR-5 ovarian is 1.99 µM; with U251 CNS it was 1.47 µM; with UACC-257 melanoma it was 1.88 µM; with UACC-62 melanoma it was 1.82 µM. In addition, the TGI worked out at 10.5 µM in the experiment on CCRF-CEM leukemia; 9.96 µM in the experiment on DU-145 prostate; 10.7 µM with HOP-62 NSCLC; 2.89 µM with HT29 colon; 3.97 µM in the experiment with IGROV1 ovarian; 2.92 µM in the experiment on MALME-3M melanoma. In addition, the TGI in the experiment with OVCAR-5 ovarian was 5.88 µM; in the experiment with U251 CNS, 4.44 µM; in the experiment with UACC-257 melanoma, 3.91 µM; with UACC-62 melanoma, 3.68 µM.

Consider `O=C(/C=C/c1ccco1)c1ccc(Nc2nc(Nc3ccc(F)cc3)nc(Nc3ccc(F)cc3)n2)cc1`, for which the GI50 is 19 µM in the experiment with CCRF-CEM leukemia; 28.8 µM in the experiment on DU-145 prostate; 57.4 µM in the experiment with HOP-62 NSCLC; 18.1 µM in the experiment with HT29 colon; 10.7 µM in the experiment with IGROV1 ovarian; 43.7 µM in the experiment with MALME-3M melanoma. For the same compound, the GI50 with OVCAR-5 ovarian was 47.6 µM; in the experiment on U251 CNS it was 21.6 µM; with UACC-257 melanoma it was greater than 100 µM; with UACC-62 melanoma it was greater than 100 µM. Further, the TGI is greater than 100 µM with CCRF-CEM leukemia; greater than 100 µM with DU-145 prostate; greater than 100 µM in the experiment with HOP-62 NSCLC; greater than 100 µM in the experiment with HT29 colon; 29.6 µM in the experiment on IGROV1 ovarian; greater than 100 µM in the experiment with MALME-3M melanoma. Besides, the TGI was greater than 100 µM in the experiment on OVCAR-5 ovarian, 42.2 µM with U251 CNS, greater than 100 µM in the experiment with UACC-257 melanoma and greater than 100 µM in the experiment on UACC-62 melanoma.

As to `CCN(CC)Cc1cc(Nc2c3ccccc3nc3cc(Cl)ccc23)ccc1O`, the GI50 with CCRF-CEM leukemia was 2.59 µM; in the experiment on DU-145 prostate it was 2.63 µM; in the experiment with HOP-62 NSCLC it was 1.73 µM; in the experiment with HT29 colon it was 0.487 µM; with IGROV1 ovarian, 1.65 µM; with MALME-3M melanoma it was 1.94 µM. The GI50 in the experiment with OVCAR-5 ovarian was 2.42 µM; in the experiment with U251 CNS, 1.39 µM; in the experiment with UACC-257 melanoma, 1.9 µM; in the experiment on UACC-62 melanoma, 2.1 µM. The TGI is greater than 100 µM in the experiment on CCRF-CEM leukemia; 9.69 µM in the experiment with DU-145 prostate; 3.16 µM in the experiment on HOP-62 NSCLC; 1.75 µM in the experiment with HT29 colon; 3.55 µM with IGROV1 ovarian; 3.58 µM in the experiment with MALME-3M melanoma. In addition, the TGI with OVCAR-5 ovarian amounted to 6.66 µM; in the experiment with U251 CNS, 2.89 µM; in the experiment on UACC-257 melanoma it was 3.41 µM; in the experiment with UACC-62 melanoma, 4 µM.

In the case of `COc1ccc(C(=O)c2cc3c(N)c(C(=O)Nc4cccc(OC)c4)sc3nc2C)cc1`, the GI50 in the experiment with CCRF-CEM leukemia was 0.363 µM; with DU-145 prostate, 0.523 µM; in the experiment on HT29 colon, 0.472 µM; in the experiment with IGROV1 ovarian it was 0.724 µM; in the experiment with MALME-3M melanoma, 0.593 µM; in the experiment with OVCAR-5 ovarian it was 1.54 µM. The GI50 in the experiment on U251 CNS is 0.55 µM; with UACC-257 melanoma, greater than 100 µM; in the experiment with UACC-62 melanoma it was 0.594 µM. Besides, the TGI in the experiment with CCRF-CEM leukemia, in the experiment with DU-145 prostate, in the experiment with HOP-62 NSCLC, in the experiment with HT29 colon, in the experiment with IGROV1 ovarian and in the experiment on MALME-3M melanoma was greater than 100 µM throughout. For the same compound, the TGI in the experiment on OVCAR-5 ovarian, in the experiment on U251 CNS, with UACC-257 melanoma and with UACC-62 melanoma was greater than 100 µM throughout.

As for `Cc1ccc(S(=O)(=O)NC(CO)C(=O)O)cc1` (centres undefined), the TGI in the experiment with CCRF-CEM leukemia, in the experiment with DU-145 prostate, with HOP-62 NSCLC, with HT29 colon, with IGROV1 ovarian and in the experiment on MALME-3M melanoma was greater than 100 µM each time. Besides, the TGI in the experiment with OVCAR-5 ovarian, in the experiment with U251 CNS, in the experiment on UACC-257 melanoma and with UACC-62 melanoma was greater than 100 µM throughout.
